One may read the solubility as how much of the substance goes into solution per volume.

In data set [1] the test system is S. pneumoniae T14. As to the kind of experiment: Growth of S. pneumoniae T14 in fermentation with azido sugar (OD600). The format is cell-based, Streptococcus pneumoniae serotype 14.
Data set [2] concerns S. pneumoniae T14. It is filed as cell-based, Streptococcus pneumoniae serotype 14. Particulars: production medium + Galactose (30 g/L). The protocol:
(§1) FIGS. 1A-1D. Screen for azido sugar incorporation into S. pneumoniae T14 capsule polysaccharide. […] Bacteria were grown until the ΔOD600≥0 for >30 minutes, then lysed with 0.1% NLS for 30 minutes. Growth was measured offline using a spectrophotometer blanked with PBS at 600 nm. (FIG. 1A) azido incorporation into polysaccharide was then quantified via fluorescent labeling (FL) with normalization to refractive index (RI). MaxOD and End Of Fermentation time (EOF) are provided in (FIG. 1B) and (FIG. 1C), respectively. Polysaccharide was extracted using EtOH and CaCl2 and analyzed via SEC-RI for (FIG. 1D) polysaccharide titer. n=1-4, error bars=+/−StDev.
FIGS. 2A-2D Impact of 2AzGlcAc4 concentration on S. pneumoniae T14 growth and poly production in production medium supplemented with Galactose (30 g/L). […] (FIG. 2A) Growth was measured offline using a spectrophotometer blanked with PBS at 600 nm. At the end of fermentation, cultures were lysed with 0.1% NLS for 30 min. and polysaccharide was extracted via EtOH/CaCl2) precipitation. Polysaccharide titer (FIG. 2B) and size (FIG. 2C) were measured via SEC-RI and SEC-MALS, respectively. (FIG. 2D) azido incorporation was then quantified via fluorescent labeling (FL) and normalized to the refractive index (RI). n=3, error bars=+/−StDev.
FIGS. 3A-3E Impact of 2AzGlc concentration on S. pneumoniae T14 growth and polysaccharide production in production medium supplemented with Galactose (30 g/L). […] (FIG. 3A) Growth was measured offline using a spectrophotometer blanked with PBS at 600 nm. Cultures were lysed with 0.1% NLS for 30 min. and polysaccharide was extracted via EtOH/CaCl2) precipitation. Polysaccharide (FIG. 3B/FIG. 3C) titer and (FIG. 3D) size were measured via SEC-RI and SEC-MALS, respectively. (FIG. 3E) azido incorporation was then quantified via fluorescent labeling (FL) and normalized to the refractive index (RI). n=3, error bars=+/−StDev.
We tested the impact of 2AzGlc concentration on S. pneumoniae T14 growth, polysaccharide production, and azido incorporation by growing the bacteria in production media (supplemented with Glucose (dextrose, 30 g/L)) with various concentrations of 2AzGlc (0, 1, 5, 10, 20, 40, and 60 mM).

For data set [3], the system named is S. pneumoniae T14 capsule polysaccharide. It is filed as cell-based, Streptococcus pneumoniae serotype 14. Particulars: 2AzGlcAc4 2.5-10 mM, production medium + Galactose (30 g/L), DMSO 2%. The procedure: as §1
A SEC fluorescence and Refractive index assay (SEC-FL/RI) was used for azide measurement to confirm the incorporation of azide modification.
Click-It Cell Reaction Buffer kit and Alexa Fluor 488 Alkyne were purchased from Invitrogen.
The initial procedure when running the SEC-FL/RI was to prepare the sample to a target concentration of 0.01 mg/m by mixing a pre-diluted polysaccharide to the final target concentration with the Click Reaction mixture. The reaction mixture consisted of 2.67 mM CuSO4, 2.67 mg/mL cell additive reagent, and 20 uM Alexa Fluor Alkyne. This was mixed with the sample at a 3:1 ratio of reaction mixture to sample and incubated in the absence of light. Reactions were transferred to HPLC vials and ran on the SEC-FL/RI HPLC setup. The RI detector (RID) allowed for detection of the polysaccharide while the Fluorescence Detector (FLD) was used to determine the level of fluor incorporated into the polysaccharide sample. The ratio of the two peak areas gave a measurement for the amount of azide incorporated to the polysaccharide.
Later, in addition to the incubation of the sample for thirty minutes, a buffer exchange step was added that washed out the unreacted fluor as well as the reaction matrix reagents in order to improve the baselines of the FLD and RID during the HPLC run. This added greater resolution of the peak associated with the azide functionalized polysaccharide. The assay was useful for relative quantitation of azide incorporation into the polysaccharide but could not quantify an exact numerical concentration. To improve this aspect work was undertaken to use a polysaccharide with known levels of azido functionalization to make a standard curve that varied the % Azido while keeping the polysaccharide mass the same. This was done by mixing the known azido modified poly (polysaccharide) with specific amounts of native (unmodified) polysaccharide. A strong linear fit for the generated standard curve was seen.
The values for percent azide were able to be converted to a μM azide per mM polysaccharide by converting from % azide using the constant polysaccharide concentration.

Data set [4] in a line: Solubility of azido sugar in production medium. The note with it: production medium supplemented with galactose (30 g/L), aqueous buffer; read-out: limit of solubility. It is filed as physicochemical.

Turning to `[N-]=[N+]=N[C@H]1[C@H](O)[C@@H](CO)OC(O)[C@@H]1O` (stereo partly drawn) [3AzGlc, 3-azido-3-deoxy-D-glucopyranose], the “End Of Fermentation (EOF) time” value in the data set with S. pneumoniae T14 [1] (screen, azido sugar 1 mM, only in production medium + Galactose) is “elongated”.
Regarding `CC(=O)OC[C@H]1OC(O)[C@H](N=[N+]=[N-])[C@@H](OC(C)=O)[C@@H]1O` (stereo partly drawn) [2AzGlcAc2, 3,6-Di-O-acetyl-2-azido-2-deoxy-D-glucopyranose], in the data set with S. pneumoniae T14 [1] (azido sugar 20 mM without DMSO, production medium + Galactose (30 g/L)), the growth entry is given as “strongly inhibited”. Also, in the data set with S. pneumoniae T14 [2] (azido sugar 20 mM without DMSO), the polysaccharide production result was “strongly inhibited”.
For `CC(=O)OC[C@H]1OC(OC(C)=O)[C@H](N=[N+]=[N-])[C@@H](OC(C)=O)[C@@H]1OC(C)=O` (stereo partly drawn) [2AzGlcAc4, 1,3,4,6-Tetra-O-acetyl-2-azido-2-deoxy-D-glucopyranose], the impact on growth result in the data set with S. pneumoniae T14 [1] (2AzGlcAc4 2.5, 5, 7.5, 10 mM, production medium + Galactose (30 g/L), DMSO 2%) is “no impact”. Also, in data set [3], the “FL/RI with increasing concentrations” value is given as “did not cause an increase”. Further, the polysaccharide titer entry in the data set with S. pneumoniae T14 [2] (2AzGlcAc4 2.5, 5, 10 mM (not 7.5 mM), DMSO 2%) is recorded as “statistically significant reduction”. In addition, in data set [4], the solubility is at most 1000 µM.

These data come from patent US20250163484A1, “Methods for Incorporating Azido Groups in Bacterial Capsular Polysaccharides” (PFIZER INC., priority 2022, published 2025).
